Measurements reported in PMC6944674, “Comparison of the Hepatotoxic Potential of Two Treatments for Autosomal-Dominant Polycystic Kidney DiseaseUsing Quantitative Systems Toxicology Modeling” (Pharmaceutical Research, 2020).

Assays:
[1] = parameters: method as in proprietary data not shown; conditions: ref proprietary data not shown, cited from earlier work
human BSEP = target: T1, human BSEP (Homo sapiens, UniProt O95342); test: BSEP vesicular transport inhibition assay (taurocholate, HEK-293 cell membrane vesicles); type: biochemical
T1 construct: host or cells: HEK-293 cell membrane vesicles
Description: (§1) The functional impact of lixivaptan, its three metabolites and tolvaptan on the human ABC (efflux) transporters BSEP and MRP3 and MRP4 was assessed for this project using in vitro vesicular transport inhibition assays. The inhibition of the human SLC (uptake) transporter NTCP was assessed using CHO cells stably expressing human NTCP. The concentration ranges used for the five test articles was determined based on the solubility of each compound in the assay solution. All transporter inhibition assays were conducted in triplicate by Solvo Biotechnology (Szeged, Hungary).
For the simulation of bile acid transporter inhibition by lixivaptan in DILIsym, parameter values were selected for BSEP canalicular transport, basolateral transport (encompassing both MRP3 and MRP4), and NTCP transport. The parameter values for each include the inhibition constant, defined as the IC50 or Ki value, and the inhibition type, defined as competitive, non-competitive, or mixed inhibition.
In vesicular transport inhibition assays, lixivaptan and its metabolites each inhibited BSEP-mediated probe substrate accumulation (Figure B1) and MRP4-mediated probe substrate accumulation (Figure B2) dose-dependently.
Figure B1. […] See Appendix A for more details.

[2] = Intracellular concentration by LC/MS/MS in HepG2 cultures parallel to Seahorse assay; type: in vitro ADME; conditions: human, HepG2 cells, Seahorse medium
Description: (§2) The concentration of test compound at the site of action (i.e. hepatocytes) has been identified as highly influential in the selection of parameter values (7). To assess intracellular concentrations of the five test articles, identical HepG2 cultures were established in parallel and cell lysate concentrations of the test articles were measured by LC/MS/MS analysis. Intracellular concentrations of the test articles were calculated by correcting for cell lysate volume (100 µL) and the volume of HepG2 cells in each well, which was calculated by multiplying cell count per well by cellular volume per cell (2.85 pl/cell). One independent study in duplicate was conducted to assess intracellular concentrations of the test articles for Seahorse studies.

HepG2 cells [3] = test: as above; type: in vitro ADME; conditions: Seahorse medium; for CIntracellular Fraction: cell lysate; for CHepatocyte: corrected for lysate and HepG2 cell volume
Description: as §2

human MRP4 = target: T2, human MRP4 (Homo sapiens, UniProt O15439); test: MRP4 vesicular transport inhibition assay (E217βG, HEK-293 cell membrane vesicles); type: biochemical
T2 construct: host or cells: HEK-293 cell membrane vesicles
T2 sequence (O15439 1-1325): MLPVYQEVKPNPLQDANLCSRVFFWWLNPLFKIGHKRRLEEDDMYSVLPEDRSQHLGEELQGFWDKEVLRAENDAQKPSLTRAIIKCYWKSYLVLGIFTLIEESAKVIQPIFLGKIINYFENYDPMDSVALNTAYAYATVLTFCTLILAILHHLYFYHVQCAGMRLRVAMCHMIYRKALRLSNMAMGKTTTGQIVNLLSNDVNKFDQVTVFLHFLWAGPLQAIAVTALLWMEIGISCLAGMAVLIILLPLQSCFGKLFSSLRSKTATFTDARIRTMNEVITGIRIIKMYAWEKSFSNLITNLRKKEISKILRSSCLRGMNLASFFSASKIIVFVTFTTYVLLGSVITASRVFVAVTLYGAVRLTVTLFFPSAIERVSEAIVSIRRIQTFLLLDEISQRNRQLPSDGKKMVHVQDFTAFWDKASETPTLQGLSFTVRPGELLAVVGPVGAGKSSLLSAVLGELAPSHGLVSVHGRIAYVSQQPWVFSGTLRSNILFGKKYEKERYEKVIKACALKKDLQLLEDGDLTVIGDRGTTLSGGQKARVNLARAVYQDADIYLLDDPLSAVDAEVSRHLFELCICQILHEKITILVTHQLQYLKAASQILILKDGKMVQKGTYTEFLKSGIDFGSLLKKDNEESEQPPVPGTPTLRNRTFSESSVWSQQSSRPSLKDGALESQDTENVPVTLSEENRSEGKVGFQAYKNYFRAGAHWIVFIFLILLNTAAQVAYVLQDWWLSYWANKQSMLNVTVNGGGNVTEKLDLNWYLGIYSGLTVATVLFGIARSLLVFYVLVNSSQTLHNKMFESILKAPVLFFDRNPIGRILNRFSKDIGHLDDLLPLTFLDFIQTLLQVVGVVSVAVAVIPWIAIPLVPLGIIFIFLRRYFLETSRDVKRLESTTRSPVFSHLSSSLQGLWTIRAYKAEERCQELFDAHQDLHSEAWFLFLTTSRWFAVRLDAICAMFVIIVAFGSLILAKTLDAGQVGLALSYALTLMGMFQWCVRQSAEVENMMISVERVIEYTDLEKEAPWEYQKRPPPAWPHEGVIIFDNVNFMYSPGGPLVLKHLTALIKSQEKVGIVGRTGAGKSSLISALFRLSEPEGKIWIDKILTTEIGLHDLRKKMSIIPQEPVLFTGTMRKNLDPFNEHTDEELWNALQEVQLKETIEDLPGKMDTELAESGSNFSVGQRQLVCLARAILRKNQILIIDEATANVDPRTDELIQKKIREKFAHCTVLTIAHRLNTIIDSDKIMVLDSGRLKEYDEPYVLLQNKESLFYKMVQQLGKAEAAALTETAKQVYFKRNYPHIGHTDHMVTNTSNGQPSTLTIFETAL
Description: as §1
Figure B2. […] See Appendix A for more details.

[4] = cited from earlier work
HepG2 cells [5] = test: ROS formation by DHE fluorescence (high-content imaging); type: cell-based; conditions: 24 hour incubation
Description: To assess the potential for lixivaptan and its metabolites to induce oxidative stress, assays to measure formation of reactive oxygen species (ROS) were conducted by Cyprotex and overseen by the authors. HepG2 cells were cultured in triplicate in the presence of each test article for 1 or 24 hours; the range of concentrations used for each test article is listed in Table B1. ROS formation was assayed by DHE fluorescence. Two independent studies in triplicate were conducted on HepG2 cells.

[6] = End Stage Renal Disease patients, ref personal communication, proprietary data not shown

T1 sequence (O95342 whole entry): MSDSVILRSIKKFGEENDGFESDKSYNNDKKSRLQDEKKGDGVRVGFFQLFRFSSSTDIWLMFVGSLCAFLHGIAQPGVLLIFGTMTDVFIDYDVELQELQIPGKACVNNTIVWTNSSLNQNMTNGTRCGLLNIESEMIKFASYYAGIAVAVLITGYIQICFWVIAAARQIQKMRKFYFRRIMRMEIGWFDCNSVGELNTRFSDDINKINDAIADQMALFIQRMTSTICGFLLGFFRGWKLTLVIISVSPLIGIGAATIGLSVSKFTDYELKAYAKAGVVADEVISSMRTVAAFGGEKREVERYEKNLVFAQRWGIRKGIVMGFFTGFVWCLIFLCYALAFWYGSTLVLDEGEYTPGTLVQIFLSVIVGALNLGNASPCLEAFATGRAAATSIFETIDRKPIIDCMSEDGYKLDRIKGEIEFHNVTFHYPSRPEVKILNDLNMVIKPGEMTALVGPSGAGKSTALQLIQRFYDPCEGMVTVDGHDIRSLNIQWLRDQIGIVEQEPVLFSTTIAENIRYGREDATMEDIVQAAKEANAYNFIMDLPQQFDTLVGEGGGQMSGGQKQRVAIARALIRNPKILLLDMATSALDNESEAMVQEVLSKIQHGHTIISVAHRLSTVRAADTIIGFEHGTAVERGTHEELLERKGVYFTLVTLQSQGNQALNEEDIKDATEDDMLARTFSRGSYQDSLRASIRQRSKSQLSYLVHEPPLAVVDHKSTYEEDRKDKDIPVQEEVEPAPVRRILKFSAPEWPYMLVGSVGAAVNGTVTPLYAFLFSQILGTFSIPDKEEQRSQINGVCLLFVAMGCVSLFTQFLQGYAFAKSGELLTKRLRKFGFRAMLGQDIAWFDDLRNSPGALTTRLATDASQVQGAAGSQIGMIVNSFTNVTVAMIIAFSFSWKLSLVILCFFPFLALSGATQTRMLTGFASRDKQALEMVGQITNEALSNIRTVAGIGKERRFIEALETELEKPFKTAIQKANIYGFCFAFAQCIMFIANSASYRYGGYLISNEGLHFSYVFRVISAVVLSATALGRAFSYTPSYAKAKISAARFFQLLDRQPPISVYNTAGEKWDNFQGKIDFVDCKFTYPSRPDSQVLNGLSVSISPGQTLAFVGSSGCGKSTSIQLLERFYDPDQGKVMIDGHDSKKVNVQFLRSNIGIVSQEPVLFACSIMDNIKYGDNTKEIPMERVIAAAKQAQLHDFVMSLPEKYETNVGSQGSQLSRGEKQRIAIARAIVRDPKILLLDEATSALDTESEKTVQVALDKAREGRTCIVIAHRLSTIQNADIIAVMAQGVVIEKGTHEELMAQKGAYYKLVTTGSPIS

Kp at 0.5 µM ([2]; dose 0.5 µM): 23.2
Kp at 1 µM ([2]; dose 1 µM): 14.3
Kp at 5 µM ([2]; dose 5 µM): 8.02
Kp at 10 µM ([2]; dose 10 µM): 6.35
Kp at 25 µM ([2]; dose 25 µM): 4.52
Kp at 40 µM ([2]; dose 40 µM): 4.62
CIntracellular Fraction (HepG2 cells [3]; dose 0.1 µM): 0 µM
CHepatocyte (HepG2 cells [3]; dose 0.1 µM): 0 µM
CIntracellular Fraction (HepG2 cells [3]; dose 0.5 µM): 0.00582 µM
CHepatocyte (HepG2 cells [3]; dose 0.5 µM): 11.61 µM
CIntracellular Fraction (HepG2 cells [3]; dose 1 µM): 0.00738 µM
CHepatocyte (HepG2 cells [3]; dose 1 µM): 14.34 µM
CIntracellular Fraction (HepG2 cells [3]; dose 5 µM): 0.0193 µM
CHepatocyte (HepG2 cells [3]; dose 5 µM): 40.10 µM
CIntracellular Fraction (HepG2 cells [3]; dose 10 µM): 0.0307 µM
CHepatocyte (HepG2 cells [3]; dose 10 µM): 63.51 µM
CIntracellular Fraction (HepG2 cells [3]; dose 25 µM): 0.0525 µM
CHepatocyte (HepG2 cells [3]; dose 25 µM): 112.99 µM
CIntracellular Fraction (HepG2 cells [3]; dose 40 µM): 0.0823 µM
CHepatocyte (HepG2 cells [3]; dose 40 µM): 184.62 µM
inhibition of MRP4-mediated probe substrate accumulation (human MRP4): inhibited
SMILES: Cc1ccc(F)cc1C(=O)Nc1ccc(C(=O)N2Cc3cccn3Cc3ccccc32)c(Cl)c1 [Lixivaptan, lixivaptan]
plasma fraction unbound ([1]; human): less than 1%
blood:plasma ratio [1]: 0.6
IC50 (human BSEP; read-out: BSEP inhibition constant (IC50)): 15 µM
inhibition of BSEP-mediated probe substrate accumulation (human BSEP; vesicular transport inhibition assay): inhibited
time to steady-state concentration ([4]; 100 mg BID, clinical, ref proprietary data not shown): 6 days
recovery in single-dose mass balance study ([4]; 100 mg single dose, after 7 days, ref clinical study 0892A1-109-US): 84%
decrease of exposure (AUC) in renal failure patients vs subjects with normal renal function [4, 6]: approximately 30%
decrease of peak concentration (Cmax) in renal failure patients vs subjects with normal renal function [4, 6]: approximately 30%
Cmax ([4]; after 7 days of 100 mg BID, ref clinical study CK-LX1403 (data not shown)): 2 µM
induction of oxidative stress in HepG2 cells (HepG2 cells [5]): evidence for induction of oxidative stress
